Test results as given in the NIST ThermoML archive (doi:10.1021/acs.jced.5b00018).

How the values were obtained:
[1] = refractive index (Na D-line) (dimensionless); wn = mass fraction of the nth substance listed; conditions: 100 kPa, Liquid, Standard Abbe refractometry
[2] = refractive index (Na D-line) (dimensionless); conditions: 100 kPa, Liquid, Standard Abbe refractometry

O [water] + CCOC(C)=O
[1], w2 = 0
Conditions | refractive index
293.15 K | 1.3335
298.15 K | 1.333
303.15 K | 1.3323
308.15 K | 1.332
313.15 K | 1.3316
318.15 K | 1.3312

O [water] + [Ca+2].[Cl-].[Cl-]
[1], w2 = 0
Conditions | refractive index
293.15 K | 1.3335
298.15 K | 1.333
303.15 K | 1.3323
308.15 K | 1.332
313.15 K | 1.3316
318.15 K | 1.3312

O [water] + OC[C@H]1O[C@H](O)[C@H](O)[C@@H](O)[C@@H]1O
[1], w2 = 0
Conditions | refractive index
293.15 K | 1.3335
298.15 K | 1.333
303.15 K | 1.3323
308.15 K | 1.332
313.15 K | 1.3316
318.15 K | 1.3312

[Cl-].[Na+] [sodium chloride] + O
refractive index, [1]
Conditions | 293.15 K | 298.15 K | 303.15 K | 308.15 K | 313.15 K | 318.15 K
w1 = 0.01 | 1.3365 | 1.3359 | 1.3354 | 1.3346 | 1.3339 | 1.3333
w1 = 0.05 | 1.3434 | 1.3428 | 1.3422 | 1.3414 | 1.3407 | 1.3398
w1 = 0.1 | 1.3521 | 1.3514 | 1.3508 | 1.3502 | 1.3495 | 1.3485
w1 = 0.15 | 1.361 | 1.3604 | 1.3596 | 1.359 | 1.358 | 1.3572
w1 = 0.2 | 1.3702 | 1.3692 | 1.3683 | 1.3678 | 1.367 | 1.3661
w1 = 0.25 | 1.3795 | 1.3788 | 1.378 | 1.3773 | 1.3767 | 1.3757

[Cl-].[K+] [potassium chloride] + O
refractive index, [1]
Conditions | 293.15 K | 298.15 K | 303.15 K | 308.15 K | 313.15 K | 318.15 K
w1 = 0.01 | 1.3349 | 1.3345 | 1.334 | 1.3335 | 1.333 | 1.332
w1 = 0.05 | 1.3405 | 1.3401 | 1.3396 | 1.339 | 1.3384 | 1.3379
w1 = 0.1 | 1.3486 | 1.348 | 1.3476 | 1.347 | 1.3464 | 1.346
w1 = 0.15 | 1.3577 | 1.3571 | 1.3566 | 1.356 | 1.3554 | 1.355

[Ca+2].[Cl-].[Cl-] [calcium chloride] + O
refractive index, [1]
Conditions | 293.15 K | 298.15 K | 303.15 K | 308.15 K | 313.15 K | 318.15 K
w1 = 0.01 | 1.3356 | 1.3353 | 1.3349 | 1.3344 | 1.3339 | 1.3331
w1 = 0.05 | 1.3442 | 1.3437 | 1.3431 | 1.3426 | 1.342 | 1.3414
w1 = 0.1 | 1.3568 | 1.3561 | 1.3555 | 1.3551 | 1.3546 | 1.3539
w1 = 0.15 | 1.3689 | 1.3686 | 1.368 | 1.3671 | 1.3667 | 1.3662
w1 = 0.2 | 1.3818 | 1.3814 | 1.3807 | 1.3802 | 1.3795 | 1.3789
w1 = 0.25 | 1.3945 | 1.3943 | 1.394 | 1.3933 | 1.3926 | 1.392

OC[C@H]1O[C@H](O)[C@H](O)[C@@H](O)[C@@H]1O [α-D-glucose] + O
refractive index, [1]
Conditions | w1 = 0.01 | w1 = 0.05 | w1 = 0.1 | w1 = 0.15 | w1 = 0.2 | w1 = 0.3 | w1 = 0.4 | w1 = 0.5
293.15 K | 1.336 | 1.3412 | 1.3481 | 1.3553 | 1.3623 | 1.3775 | 1.3947 | 1.4119
298.15 K | 1.3355 | 1.3406 | 1.3475 | 1.3548 | 1.3617 | 1.3768 | 1.3939 | 1.4106
303.15 K | 1.3349 | 1.3401 | 1.3469 | 1.3542 | 1.361 | 1.3763 | 1.3932 | 1.41
308.15 K | 1.3345 | 1.3395 | 1.3463 | 1.3535 | 1.3604 | 1.3757 | 1.3925 | 1.4098
313.15 K | 1.3337 | 1.3388 | 1.3455 | 1.3527 | 1.3596 | 1.3747 | 1.3919 | 1.4086
318.15 K | 1.3329 | 1.3379 | 1.3447 | 1.3519 | 1.3588 | 1.3739 | 1.3907 | 1.4073

O [water] + [Cl-].[K+]
[1], w2 = 0
Conditions | refractive index
293.15 K | 1.3335
298.15 K | 1.333
303.15 K | 1.3323
308.15 K | 1.332
313.15 K | 1.3316
318.15 K | 1.3312

O [water] + [Cl-].[Na+]
[1], w2 = 0
Conditions | refractive index
293.15 K | 1.3335
298.15 K | 1.333
303.15 K | 1.3323
308.15 K | 1.332
313.15 K | 1.3316
318.15 K | 1.3312

O [water]
[2]
Conditions | refractive index
293.15 K | 1.3335
298.15 K | 1.333
303.15 K | 1.3323
308.15 K | 1.332
313.15 K | 1.3316
318.15 K | 1.3312

CCOC(C)=O [ethyl acetate] + O
refractive index, [1]
Conditions | 293.15 K | 298.15 K | 303.15 K | 308.15 K | 313.15 K | 318.15 K
w1 = 0.009 | 1.3341 | 1.3335 | 1.3331 | 1.3327 | 1.3321 | 1.3317
w1 = 0.027 | 1.3352 | 1.3348 | 1.3342 | 1.3337 | 1.3332 | 1.3326
w1 = 0.045 | 1.3368 | 1.3364 | 1.3358 | 1.3353 | 1.3346 | 1.3342
w1 = 0.064 | 1.3384 | 1.338 | 1.3377 | 1.3368 | 1.3358 | 1.3352
w1 = 0.082 | 1.3391 | 1.3388 | 1.3383 | 1.3378 | 1.3373 | 1.3365
